In patent US9840498B2, “Substituted quinazolin-4-one derivatives” (NOVARTIS AG, priority 2013, dated 2017):
pIC50: −log10 of the molar value.

Target: PI3K gamma (Homo sapiens (Human), UniProt P48736)
Test: Biochemical assay for PI3Kgamma (Adapta TR-FRET format)
Details: enzymatic assay
From the text: For the enzymatic assays, the preparation of PI3K gene constructs, protein expression and purification for HTS are described in WO2012/004299. […] The TR-FRET Adapta™ Universal Kinase Assay Kit was purchased from Invitrogen Corporation (Carlsbad/CA, USA) (Cat. No. PV5099). The kit contains the following reagents: Adapta Eu-anti-ADP Antibody (Europium labeled anti-ADP antibody in HEPES buffered saline, Cat. No. PV5097), Alexa Fluor® 647-labeled ADP tracer (Alexa Fluor® 647-labeled ADP tracer in HEPES buffered saline, Cat. No. PV5098), proprietary TR-FRET dilution buffer pH 7.5 (Cat. No. PV3574). PIK3CD substrate Phosphatidylinositol was obtained from Invitrogen (vesicules consisting of 2 mM PI in 50 mM HEPES pH7.5; Cat. No. PV5371). PIK3CG substrate Phosphatidylinositol-4,5-bisphosphate (PIP(4,5)2 was obtained from Invitrogen (PIP2:PS large unilamellar vesicules consisting of 1 mM PI P2: 19 mM PS in 50 mM HEPES pH7.5, 3 mM MgCl2, 1 mM EGTA; Cat. No. PV5100). Time-Resolved Fluorescence Resonance Energy Transfer (TR-FRET) is a technology based on energy transfer between two adjacent dyes, from an excited electron in one dye (the donor) to an electron of an adjacent dye (the acceptor) through resonance, then released as a photon. This energy transfer is detected by an increase in the fluorescence emission of the acceptor, and a decrease in the fluorescence emission of the donor. TR-FRET assays for protein kinases use a long-lifetime lanthanide Terbium or Europium chelates as the donor species which overcome interference from compound autofluorescence or light scatter from precipitated compounds, by introducing a delay after excitation by a flashlamp excitation source. Results are often expressed as a ratio of the intensities of the acceptor and donor fluorophores. The ratiometric nature of such a value corrects for differences in assay volumes between wells, as well as corrects for quenching effects due to colored compounds. The Adapta™ assay can be divided into two phases: a kinase reaction phase and an ADP detection phase. In the kinase reaction phase, all kinase reaction components are added to the well and the reaction is allowed to incubate for a set period of time specific for each kinase. After the reaction, a detection solution of Eu-labeled anti-ADP antibody, Alexa Fluor® 647-labeled ADP tracer, and EDTA (to stop the kinase reaction) are added to the assay well. ADP formed by the kinase reaction will displace the Alexa Fluor® 647-labeled ADP tracer from the antibody, resulting in a decrease in TR-FRET signal. In the presence of an inhibitor, the amount of ADP formed by the kinase reaction is reduced, and the resulting intact antibody-tracer interaction maintains a high TR-FRET signal. In the Adapta™ assay, the donor (Europium-anti-ADP antibody) is excited at 340 nm and will transfer its energy to the acceptor (Alexa Fluor® 647-labeled ADP tracer). The emission from the Alexa Fluor® 647 can be monitored with a filter centered at 665 nm because it is located between the emission peaks of the donor, which is measured at 615/620 nm. 50 nL of compound dilutions were dispensed onto white 384-well small volume polystyrene plate as described in section 2.2. Then 5 μL of PI3Kgamma and PI3Kdelta and lipid substrate (PI or PIP2:PS) followed by 5 μL of ATP (final assay volume 10 μL) are incubated at RT. […] Reactions were stopped with 5 μL of a mixture of EDTA containing the Eu-labeled anti-ADP antibody and the Alexa Fluor® 647-labeled ADP tracer in TR-FRET dilution buffer (proprietary to IVG). Plates are read 15 to 60 mins later in a Synergy2 reader using an integration time of 0.4 seconds and a delay of 0.05 seconds. […] The control for the 0% inhibition was given by the solvent vehicle of the compounds (90% DMSO in H2O). Data are analyzed using Excel fit software or Graphpad Prism. EC50 values were derived by fitting a sigmoidal dose-response curve to a plot of assay readout over inhibitor concentration. […]

PI3K gamma, sequence (P48736 whole entry): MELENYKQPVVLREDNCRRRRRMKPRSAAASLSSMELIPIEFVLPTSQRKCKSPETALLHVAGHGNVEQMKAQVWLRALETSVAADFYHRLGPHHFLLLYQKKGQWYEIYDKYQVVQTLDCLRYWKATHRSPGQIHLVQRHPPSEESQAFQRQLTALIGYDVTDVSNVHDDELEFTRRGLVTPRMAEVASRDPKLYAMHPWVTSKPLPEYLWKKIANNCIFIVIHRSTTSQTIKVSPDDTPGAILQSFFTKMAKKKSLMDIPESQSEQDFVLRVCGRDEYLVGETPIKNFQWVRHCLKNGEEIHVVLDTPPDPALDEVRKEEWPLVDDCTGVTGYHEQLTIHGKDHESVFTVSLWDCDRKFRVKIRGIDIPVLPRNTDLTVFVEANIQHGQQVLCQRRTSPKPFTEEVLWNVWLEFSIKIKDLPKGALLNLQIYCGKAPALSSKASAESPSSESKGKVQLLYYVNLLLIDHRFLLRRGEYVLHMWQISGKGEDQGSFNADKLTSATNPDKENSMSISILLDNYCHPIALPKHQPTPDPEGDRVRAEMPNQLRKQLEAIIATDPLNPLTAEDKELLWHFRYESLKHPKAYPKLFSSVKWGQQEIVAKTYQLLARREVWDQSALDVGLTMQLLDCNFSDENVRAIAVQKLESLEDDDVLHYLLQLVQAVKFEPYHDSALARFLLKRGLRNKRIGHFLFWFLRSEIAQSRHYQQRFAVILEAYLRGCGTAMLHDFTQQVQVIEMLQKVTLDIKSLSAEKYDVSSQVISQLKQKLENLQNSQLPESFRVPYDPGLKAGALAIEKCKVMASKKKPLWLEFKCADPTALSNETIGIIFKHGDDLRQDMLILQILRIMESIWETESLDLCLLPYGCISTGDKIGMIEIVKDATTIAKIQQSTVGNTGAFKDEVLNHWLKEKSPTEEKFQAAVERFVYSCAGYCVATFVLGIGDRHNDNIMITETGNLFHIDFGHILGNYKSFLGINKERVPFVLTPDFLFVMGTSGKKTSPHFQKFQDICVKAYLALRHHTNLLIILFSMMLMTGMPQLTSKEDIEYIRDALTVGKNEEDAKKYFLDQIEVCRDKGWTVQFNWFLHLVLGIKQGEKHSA

Compound	pIC50
COc1ncc(-c2cccc3nc([C@@H]4CCCN4c4ncnc(N)c4C#N)n(-c4ccccc4)c(=O)c23)cn1 [Example 3, (S)-4-Amino-6-(2-(5-(2-methoxypyrimidin-5-yl)-4-oxo-3-phenyl-3,4-dihydroquinazolin-2-yl)pyrrolidin-1-yl)pyrimidine-5-carbonitrile]	5.92
COc1cncc(-c2cccc3nc([C@@H]4CCCN4c4nc(N)nc(C)c4C#N)n(-c4ccccc4)c(=O)c23)c1 [Example 18, (S)-2-Amino-4-(2-(5-(5-methoxypyridin-3-yl)-4-oxo-3-phenyl-3,4-dihydroquinazolin-2-yl)pyrrolidin-1-yl)-6-methylpyrimidine-5-carbonitrile]	7.05
Cc1nc(N)nc(N2CCC[C@H]2c2nc3cccc(-c4cccnc4)c3c(=O)n2-c2ccccc2)c1C#N [Example 20, (S)-2-Amino-4-methyl-6-(2-(4-oxo-3-phenyl-5-(pyridin-3-yl)-3,4-dihydroquinazolin-2-yl)pyrrolidin-1-yl)pyrimidine-5-carbonitrile]	6.85
COc1ccc(-c2cccc3nc([C@@H]4CCCN4c4nc(N)nc(C)c4C#N)n(-c4ccccc4)c(=O)c23)cn1 [Example 21, (S)-2-Amino-4-(2-(5-(6-methoxypyridin-3-yl)-4-oxo-3-phenyl-3,4-dihydroquinazolin-2-yl)pyrrolidin-1-yl)-6-methylpyrimidine-5-carbonitrile]	6.57
COc1ncc(-c2cccc3nc([C@@H]4C[C@H](OC)CN4c4nc(N)nc(C)c4C#N)n(-c4ccccc4)c(=O)c23)cn1 [Example 12, 2-Amino-4-((2S,4S)-4-methoxy-2-(5-(2-methoxypyrimidin-5-yl)-4-oxo-3-phenyl-3,4-dihydroquinazolin-2-yl)pyrrolidin-1-yl)-6-methylpyrimidine-5-carbonitrile]	6.68
N#Cc1c(N)ncnc1N1CCC[C@H]1c1nc2cccc(C#CCO)c2c(=O)n1-c1ccccc1 [Example 33, (S)-4-Amino-6-(2-(5-(3-hydroxyprop-1-yn-1-yl)-4-oxo-3-phenyl-3,4-dihydroquinazolin-2-yl)pyrrolidin-1-yl)pyrimidine-5-carbonitrile]	7.09
Cc1nc(N)nc(N2CCC[C@H]2c2nc3ccc(F)c(-c4cnn(C)c4)c3c(=O)n2-c2ccccc2)c1C#N [Example 6, (S)-2-Amino-4-(2-(6-fluoro-5-(1-methyl-1H-pyrazol-4-yl)-4-oxo-3-phenyl-3,4-dihydroquinazolin-2-yl)pyrrolidin-1-yl)-6-methylpyrimidine-5-carbonitrile]	7.25
COc1ncc(-c2cccc3nc([C@@H]4CCCN4c4nc(N)nc(C)c4C#N)n(-c4ccccc4)c(=O)c23)cn1 [Example 4, (S)-2-Amino-4-(2-(5-(2-methoxypyrimidin-5-yl)-4-oxo-3-phenyl-3,4-dihydroquinazolin-2-yl)pyrrolidin-1-yl)-6-methylpyrimidine-5-carbonitrile]	7.09
Cc1nc(N)nc(N2C[C@@H](O)C[C@H]2c2nc3cccc(-c4cnn(C)c4)c3c(=O)n2-c2ccccc2)c1C#N [Example 16, 2-Amino-4-((2S,4S)-4-hydroxy-2-(5-(1-methyl-1H-pyrazol-4-yl)-4-oxo-3-phenyl-3,4-dihydroquinazolin-2-yl)pyrrolidin-1-yl)-6-methylpyrimidine-5-carbonitrile]	7.32
Cc1nc(N)nc(N2C[C@@H](O)C[C@H]2c2nc3cccc(-c4cncnc4)c3c(=O)n2-c2ccccc2)c1C#N [Example 26, 2-Amino-4-((2S,4S)-4-hydroxy-2-(4-oxo-3-phenyl-5-(pyrimidin-5-yl)-3,4-dihydroquinazolin-2-yl)pyrrolidin-1-yl)-6-methylpyrimidine-5-carbonitrile]	6.39
Cn1cnc(-c2cccc3nc([C@@H]4CCCN4c4ncnc(N)c4C#N)n(-c4ccccc4)c(=O)c23)c1 [Example 15, (S)-4-Amino-6-(2-(5-(1-methyl-1H-imidazol-4-yl)-4-oxo-3-phenyl-3,4-dihydroquinazolin-2-yl)pyrrolidin-1-yl)pyrimidine-5-carbonitrile]	< 5.00
COc1cncc(-c2cccc3nc([C@@H]4C[C@H](O)CN4c4nc(N)nc(C)c4C#N)n(-c4ccccc4)c(=O)c23)c1 [Example 25, 2-Amino-4-((2S,4S)-4-hydroxy-2-(5-(5-methoxypyridin-3-yl)-4-oxo-3-phenyl-3,4-dihydroquinazolin-2-yl)pyrrolidin-1-yl)-6-methylpyrimidine-5-carbonitrile]	7.19
Cn1cc(-c2cccc3nc([C@@H]4CCCN4c4ncnc(N)c4C#N)n(-c4ccccc4)c(=O)c23)cn1 [Example 2, (S)-4-Amino-6-(2-(5-(1-methyl-1H-pyrazol-4-yl)-4-oxo-3-phenyl-3,4-dihydroquinazolin-2-yl)pyrrolidin-1-yl)pyrimidine-5-carbonitrile]	6.82

Further lines, results first:

pIC50	Compound
7.74	COc1ncc(-c2c(F)ccc3nc([C@@H]4C[C@H](O)CN4c4nc(N)nc(C)c4C#N)n(-c4ccccc4)c(=O)c23)s1 [Example 9, 2-Amino-4-((2S,4S)-2-(6-fluoro-5-(2-methoxythiazol-5-yl)-4-oxo-3-phenyl-3,4-dihydroquinazolin-2-yl)-4-hydroxypyrrolidin-1-yl)-6-methylpyrimidine-5-carbonitrile]
7.55	Cc1nc(N)nc(N2C[C@@H](O)C[C@H]2c2nc3ccc(F)c(-c4cnn(C)c4)c3c(=O)n2-c2ccccc2)c1C#N [Example 1, 2-Amino-4-((2S,4S)-2-(6-fluoro-5-(1-methyl-1H-pyrazol-4-yl)-4-oxo-3-phenyl-3,4-dihydroquinazolin-2-yl)-4-hydroxypyrrolidin-1-yl)-6-methylpyrimidine-5-carbonitrile]
7.89	CCOc1ncc(-c2c(F)ccc3nc([C@@H]4C[C@H](O)CN4c4nc(N)nc(C)c4C#N)n(-c4ccccc4)c(=O)c23)cn1 [Example 29, 2-Amino-4-((2S,4S)-2-(5-(2-ethoxypyrimidin-5-yl)-6-fluoro-4-oxo-3-phenyl-3,4-dihydroquinazolin-2-yl)-4-hydroxypyrrolidin-1-yl)-6-methylpyrimidine-5-carbonitrile]
7.24	COc1ccc(-c2cccc3nc([C@@H]4C[C@H](O)CN4c4nc(N)nc(C)c4C#N)n(-c4ccccc4)c(=O)c23)cn1 [Example 27, 2-Amino-4-((2S,4S)-4-hydroxy-2-(5-(6-methoxypyridin-3-yl)-4-oxo-3-phenyl-3,4-dihydroquinazolin-2-yl)pyrrolidin-1-yl)-6-methylpyrimidine-5-carbonitrile]
6.96	COc1ncc(-c2c(F)ccc3nc([C@@H]4C[C@H](O)CN4c4nc(N)nc(C)c4C#N)n(-c4ccccc4)c(=O)c23)cn1 [Example 7, 2-Amino-4-((2S,4S)-2-(6-fluoro-5-(2-methoxypyrimidin-5-yl)-4-oxo-3-phenyl-3,4-dihydroquinazolin-2-yl)-4-hydroxypyrrolidin-1-yl)-6-methylpyrimidine-5-carbonitrile]
6.96	Cc1nc(N)nc(N2C[C@@H](O)C[C@H]2c2nc3ccc(F)c(-c4cn(C)cn4)c3c(=O)n2-c2ccccc2)c1C#N [Example 31, 2-Amino-4-((2S,4S)-2-(6-fluoro-5-(1-methyl-1H-imidazol-4-yl)-4-oxo-3-phenyl-3,4-dihydroquinazolin-2-yl)-4-hydroxypyrrolidin-1-yl)-6-methylpyrimidine-5-carbonitrile]
